According to patent US9295190B2, “Seed treatment composition” (DSM IP ASSETS B.V., priority 2011, dated 2016):

How the values were obtained:
[1] = test system: Watermelon (Citrullus lanatus) seeds; assay: Germination of coated watermelon seeds in cocopeat; assay type: in vivo
From the text: Watermelon (Citrullus lanatus) seeds were untreated or coated with a composition comprising 1.5 gram polyvinylpyrrolidone and 9 gram natamycin product (i.e. Delvocid®, a product comprising 50% (w/w) natamycin) per kg of seed. This composition was applied as described in Example 10.
(§1) Subsequently, the seeds were germinated in trays of sterile, buffered (i.e. with calcium nitrate to pH of 6.7) cocopeat, which is a stable growth medium commonly used and accepted for e.g. simulation of seed germination in the horticultural industry. The 50 seeds planted per treatment were subjected to an ambient temperature of minimally 1.4° C. during night time and maximally 26.9° C. during day time (average temperature 13.6° C.) for 19 days and continuously irrigated to field capacity. The average relative humidity during the trial was 72%. During the trial, the trays with cocopeat were irrigated 3 to 5 times per day. The trays were perforated at the bottom leading to direct removal of excess water. This way, the cocopeat could be kept at field capacity. After 15, 17 and 19 days, the germination percentage was determined according to ISTA standards (see Handbook International Rules for Seed Testing, Edition 2011, Chapter 5, pages 5-32, published by the International Seed Testing Association, Switzerland).

[2] = test system: Tomato (Solanum lycopersicum) seeds; assay: Germination of drum primed, encrusted tomato seeds; assay type: in vivo; conditions: after both 10 and 19 days of incubation
Procedure: as §1
Tomato (Solanum lycopersicum) seeds were primed (i.e. brought to same germination level) using drum priming. Subsequently, the primed tomato seeds were either not treated further or encrusted with composition 6 of Table 1 according to the method as described in Example 1. […] After 10 and 19 days, the germination percentage was determined using the ISTA method described in Example 11.

## C[C@@H]1C/C=C/C=C/C=C/C=C/[C@H](O[C@@H]2O[C@H](C)[C@@H](O)[C@H](N)[C@@H]2O)C[C@@H]2O[C@](O)(C[C@@H](O)C[C@H]3O[C@@H]3/C=C/C(=O)O1)C[C@H](O)[C@H]2C(=O)O [natamycin]
[1]; after 15 days of incubation
  Germination percentage in excess of the untreated seeds: 18%
[1]; after 17 days of incubation
  Germination percentage in excess of the untreated seeds: 34%
[1]; after 19 days of incubation
  Germination percentage in excess of the untreated seeds: 38%
[2]
  Germination percentage in excess of the control seeds: 10%
